Data published in patent US20050089470A1, “Labeled peptides for lectin-like oxidized low-density lipoprotein receptor (LOX-1)” (priority 2003, published 2005).
Ends that are not written are not given here. Fl = fluorescein

Test system: human coronary artery endothelial cells (HCAE)
Experiment: Binding of fluorescein-labeled ligands to HCAE cells, imaged by laser confocal fluorescence microscopy
Format: cell-based
Details: HCAE cells known to express LOX-1; about 10 μL of 1 mg/ml labeled ligand, incubated 1 hour, washed three times
Procedure: Images in the assay may be acquired using a laser confocal microscope or an Imager. For example, images of peptides bound to cells can be obtained using a laser confocal microscope as follows: HCAE cells can be grown on high quality borosilicate 8-chambered glass slides (Electron Microscopy Sciences, Fort Washington, Pa.). Then, about 10 μL of 1 mg/ml of an aqueous solution of a labeled peptide can be added to the cells and incubated for 1 hour. Subsequently, the cells preferably are washed with HBSS buffer three times. The cells then can be fixed with 4% formaldehyde solution over 10 minutes. After a final wash with buffer, the slide is imaged. Images preferably are acquired using an OLYMPUS laser scanning confocal microscope, model Fluoview 300, using Ar-ion laser (selecting 488 nm line) and a 510-nm long-pass filter. Images can be acquired using two channels: reflected light and fluorescent mode channel, or an overlay of both channels.
The experimental conditions for imaging the peptide-labeled HCAECs are described previously.
The image was obtained using a laser confocal microscope as follows: HCAE cells were laid on and grown in wells on a standard commercial 96-well plate (Becton-Dickenson, Franklin Lakes, N.J.). Then, about 10 μL of 1 mg/ml labeled antibody aqueous solution was added to the cells and incubated for 1 hour. […]

Row | Substance | binding / localization on HCAECs (fluorescent confocal image)
1 | Fl-KGKG-QPLFTPQ (Fl-KGKGQPLFTPQ) [comparative peptide] | weaker binding affinity
2 | Fl-KKGG-FQTPPQL (Fl-KKGGFQTPPQL) | localized on the cells
